Experimental data: PubChem BioAssay AID1745844 (Carcinogenic Potency Database (CPDB), 2022)
The source made the active and inactive calls. How the calls were made is not given here.

Test system: rodent lifetime carcinogenesis bioassay, tumor incidence TD50
Assay: chronic cancer bioassays in animals – CPDB, compiled studies (AID 1745844)

SMILES: CN(C)N=O
- TD50 (mouse, strain A, males, in drinking water, site: lung, lesion: alveolar-cell adenoma, dosed 72 weeks, study length 72 weeks): 0.177 mg/kg/day
- TD50 (mouse, strain BALB/c, females, in drinking water, site: any site (literature study), lesion: several types, types named in the paper, dosed 85 weeks, study length 85 weeks): 0.396 mg/kg/day
- TD50 (mouse, strain BALB/c, females, in drinking water, site: lung, lesion: adenoma, dosed 85 weeks, study length 85 weeks): 0.324 mg/kg/day
- TD50 (mouse, strain C57BL, females, by gavage, site: any site (literature study), lesion: several types, types named in the paper, dosed 50 weeks, study length 72 weeks): 0.0964 mg/kg/day
- TD50 (mouse, strain C57BL, females, by gavage, site: forebrain, lesion: olfactory neuroepithelioma, dosed 50 weeks, study length 72 weeks): 0.153 mg/kg/day
- TD50 (mouse, strain C57BL, females, by gavage, site: liver, lesion: benign tumor, dosed 50 weeks, study length 72 weeks): 0.35 mg/kg/day
- TD50 (mouse, strain C57BL, females, by gavage, site: liver, lesion: malignant tumor, dosed 50 weeks, study length 72 weeks): 0.429 mg/kg/day
- TD50 (mouse, strain C57BL, males, by gavage, site: any site (literature study), lesion: several types, types named in the paper, dosed 50 weeks, study length 72 weeks): 0.06 mg/kg/day
- TD50 (mouse, strain C57BL, males, by gavage, site: forebrain, lesion: olfactory neuroepithelioma, dosed 50 weeks, study length 72 weeks): 0.161 mg/kg/day
- TD50 (mouse, strain C57BL, males, by gavage, site: liver, lesion: benign tumor, dosed 50 weeks, study length 72 weeks): 0.508 mg/kg/day
- TD50 (mouse, strain C57BL, males, by gavage, site: liver, lesion: malignant tumor, dosed 50 weeks, study length 72 weeks): 0.179 mg/kg/day
- TD50 (mouse, strain C57BL, males, by gavage, site: lung, lesion: adenoma, dosed 50 weeks, study length 72 weeks): 21.1 mg/kg/day
- TD50 (rat, strain Buffalo, males, in feed, site: liver, lesion: hepatocellular carcinoma, dosed 26 weeks, study length 52 weeks): 1.76 mg/kg/day
- TD50 (rat, strain Colworth (Wistar derived), females, in drinking water, site: liver, lesion: hepatocellular carcinoma, dosed 176 weeks, study length 176 weeks): 0.237 mg/kg/day
- TD50 (rat, strain Colworth (Wistar derived), females, in drinking water, site: liver, lesion: hepatocellular tumor, dosed 176 weeks, study length 176 weeks): 0.145 mg/kg/day
- TD50 (rat, strain Colworth (Wistar derived), females, in drinking water, site: liver, lesion: intrahepatic bile duct tumor, benign, dosed 176 weeks, study length 176 weeks): 0.0763 mg/kg/day
- TD50 (rat, strain Colworth (Wistar derived), females, in drinking water, site: liver, lesion: intrahepatic bile duct tumor, dosed 176 weeks, study length 176 weeks): 0.0752 mg/kg/day
- TD50 (rat, strain Colworth (Wistar derived), females, in drinking water, site: liver, lesion: mesenchymal hemangio-sarcoma, -pericytoma, or -endothelioma, malignant, dosed 176 weeks, study length 176 weeks): 0.914 mg/kg/day
- TD50 (rat, strain Colworth (Wistar derived), females, in drinking water, site: liver, lesion: neoplasm of liver cell, bile duct, mesenchyme, Kupffer cell, or unknown, dosed 176 weeks, study length 176 weeks): 0.0424 mg/kg/day
- TD50 (rat, strain Colworth (Wistar derived), males, in drinking water, site: liver, lesion: hepatocellular carcinoma, dosed 176 weeks, study length 176 weeks): 0.218 mg/kg/day
- TD50 (rat, strain Colworth (Wistar derived), males, in drinking water, site: liver, lesion: hepatocellular tumor, dosed 176 weeks, study length 176 weeks): 0.157 mg/kg/day
- TD50 (rat, strain Colworth (Wistar derived), males, in drinking water, site: liver, lesion: intrahepatic bile duct tumor, benign, dosed 176 weeks, study length 176 weeks): 0.313 mg/kg/day
- TD50 (rat, strain Colworth (Wistar derived), males, in drinking water, site: liver, lesion: intrahepatic bile duct tumor, malignant, dosed 176 weeks, study length 176 weeks): 23.6 mg/kg/day
- TD50 (rat, strain Colworth (Wistar derived), males, in drinking water, site: liver, lesion: intrahepatic bile duct tumor, dosed 176 weeks, study length 176 weeks): 0.308 mg/kg/day
- TD50 (rat, strain Colworth (Wistar derived), males, in drinking water, site: liver, lesion: mesenchymal hemangio-sarcoma, -pericytoma, or -endothelioma, malignant, dosed 176 weeks, study length 176 weeks): 0.712 mg/kg/day
- TD50 (rat, strain Colworth (Wistar derived), males, in drinking water, site: liver, lesion: neoplasm of liver cell, bile duct, mesenchyme, Kupffer cell, or unknown, dosed 176 weeks, study length 176 weeks): 0.0867 mg/kg/day
- TD50 (rat, strain Colworth (Wistar derived), males, in drinking water, site: lung, lesion: several types, types named in the paper, dosed 176 weeks, study length 176 weeks): 1.64 mg/kg/day
- TD50 (rat, strain Fischer 344, females, in drinking water, site: liver, lesion: hemangiosarcoma, dosed 30 weeks, study length 110 weeks): 0.438 mg/kg/day
- TD50 (rat, strain Fischer 344, females, in drinking water, site: liver, lesion: hepatocellular carcinoma, dosed 30 weeks, study length 110 weeks): 0.135 mg/kg/day
- TD50 (rat, strain Fischer 344, females, in drinking water, site: liver, lesion: several types, types named in the paper, dosed 30 weeks, study length 110 weeks): 0.0587 mg/kg/day
- TD50 (rat, strain Fischer 344, males, by gavage, site: kidney, lesion: mesenchymal neoplasm, dosed 30 weeks, study length 65 weeks): 0.189 mg/kg/day
- TD50 (rat, strain Fischer 344, males, by gavage, site: liver, lesion: cholangiocellular tumor, benign, dosed 30 weeks, study length 65 weeks): 0.822 mg/kg/day
- TD50 (rat, strain Fischer 344, males, by gavage, site: liver, lesion: hemangiosarcoma, dosed 30 weeks, study length 65 weeks): 0.822 mg/kg/day
- TD50 (rat, strain Fischer 344, males, by gavage, site: liver, lesion: hepatocellular tumor, benign, dosed 30 weeks, study length 65 weeks): 0.372 mg/kg/day
- TD50 (rat, strain Fischer 344, males, by gavage, site: liver, lesion: several types, types named in the paper, dosed 30 weeks, study length 65 weeks): 0.189 mg/kg/day
- TD50 (rat, strain Fischer 344, males, by gavage, site: lung, lesion: alveolar/bronchiolar adenoma, dosed 30 weeks, study length 65 weeks): 0.106 mg/kg/day
- TD50 (rat, strain Fischer 344, males, by gavage, site: lung, lesion: several types, types named in the paper, dosed 30 weeks, study length 65 weeks): 0.0765 mg/kg/day
- TD50 (rat, strain Fischer 344, males, by gavage, site: lung, lesion: squamous-cell carcinoma, dosed 30 weeks, study length 65 weeks): 0.372 mg/kg/day
- TD50 (rat, strain MRC Porton (Wistar derived), females, in feed, site: liver, lesion: one or several types, types not named, dosed 52 weeks, study length 120 weeks): 0.443 mg/kg/day
- TD50 (rat, strain MRC Porton (Wistar derived), females, in feed, site: liver, lesion: one or several types, types not named, dosed 108 weeks, study length 120 weeks): 1.4 mg/kg/day
- TD50 (rat, strain MRC Porton (Wistar derived), males, in feed, site: liver, lesion: one or several types, types not named, dosed 120 weeks, study length 120 weeks): 1.18 mg/kg/day
- TD50 (rat, strain Wistar, females, in feed, site: all sites, lesion: leukemia, dosed 96 weeks, study length 96 weeks): 1.46 mg/kg/day
- TD50 (rat, strain Wistar, females, in feed, site: liver, lesion: hemangioendothelioma, dosed 96 weeks, study length 96 weeks): 1.83 mg/kg/day
- TD50 (rat, strain Wistar, females, in feed, site: liver, lesion: hepatocellular carcinoma, dosed 96 weeks, study length 96 weeks): 4.1 mg/kg/day
- TD50 (rat, strain Wistar, females, in feed, site: liver, lesion: nodular hyperplasia, dosed 96 weeks, study length 96 weeks): 0.113 mg/kg/day
- carcinogen call (rat, strain Wistar, males, in feed, site: liver, lesion: carcinoma, dosed 54 weeks, study length 69 weeks): negative (inactive)
- TD50 (rat, strain Wistar, males, in feed, site: liver, lesion: hemangioendothelioma, dosed 96 weeks, study length 96 weeks): 1.95 mg/kg/day
- TD50 (rat, strain Wistar, males, in feed, site: liver, lesion: hepatocellular carcinoma, dosed 96 weeks, study length 96 weeks): 5.52 mg/kg/day
- TD50 (rat, strain Wistar, males, in feed, site: liver, lesion: nodular hyperplasia, dosed 96 weeks, study length 96 weeks): 0.782 mg/kg/day
- TD50 (rat, strain Wistar, males, in feed, site: testis, lesion: Leydig-cell tumor, dosed 54 weeks, study length 69 weeks): 0.136 mg/kg/day

SMILES: O=C(C1CCCCC1)N1CC(=O)N2CCc3ccccc3C2C1 (configuration not stated)
- TD50 (hamster, strain Syrian Golden, females, by gavage, site: any site (literature study), lesion: several types, types named in the paper, dosed 80 weeks, study length 80 weeks): 250 mg/kg/day (inactive)
- carcinogen call (hamster, strain Syrian Golden, males, by gavage, site: any site (literature study), lesion: several types, types named in the paper, dosed 80 weeks, study length 80 weeks): negative (inactive)
- carcinogen call (rat, strain Sprague-Dawley, females, by gavage, site: any site (literature study), lesion: several types, types named in the paper, dosed 104 weeks, study length 130 weeks): negative (inactive)
- carcinogen call (rat, strain Sprague-Dawley, males, by gavage, site: any site (literature study), lesion: several types, types named in the paper, dosed 104 weeks, study length 130 weeks): negative (inactive)

SMILES: O=CNNc1nc(-c2ccco2)cs1
- carcinogen call (rat, strain Sprague-Dawley, females, in feed, site: any site (literature study), lesion: several types, types named in the paper, dosed 46 weeks, study length 64 weeks): negative (inactive)

SMILES: CCN(N)C=O
- TD50 (mouse, strain Swiss albino, females, in drinking water, site: blood vessels, lesion: several types, types named in the paper, dosed 61 weeks, study length 61 weeks): 2.49 mg/kg/day
- TD50 (mouse, strain Swiss albino, females, in drinking water, site: lung, lesion: several types, types named in the paper, dosed 61 weeks, study length 61 weeks): 2.52 mg/kg/day
- TD50 (mouse, strain Swiss albino, males, in drinking water, site: blood vessels, lesion: several types, types named in the paper, dosed 60 weeks, study length 60 weeks): 3.55 mg/kg/day
- TD50 (mouse, strain Swiss albino, males, in drinking water, site: gall bladder, lesion: several types, types named in the paper, dosed 60 weeks, study length 60 weeks): 47.4 mg/kg/day
- TD50 (mouse, strain Swiss albino, males, in drinking water, site: liver, lesion: several types, types named in the paper, dosed 60 weeks, study length 60 weeks): 17.7 mg/kg/day
- TD50 (mouse, strain Swiss albino, males, in drinking water, site: lung, lesion: several types, types named in the paper, dosed 60 weeks, study length 60 weeks): 3.19 mg/kg/day
- TD50 (mouse, strain Swiss albino, males, in drinking water, site: preputial gland, lesion: several types, types named in the paper, dosed 60 weeks, study length 60 weeks): 50.8 mg/kg/day

SMILES: CCNN
- TD50 (mouse, strain Swiss albino, females, in drinking water, site: blood vessels, lesion: angioma, dosed 82 weeks, study length 82 weeks): 42.9 mg/kg/day
- TD50 (mouse, strain Swiss albino, females, in drinking water, site: blood vessels, lesion: angiosarcoma, dosed 82 weeks, study length 82 weeks): 27.6 mg/kg/day
- TD50 (mouse, strain Swiss albino, females, in drinking water, site: blood vessels, lesion: several types, types named in the paper, dosed 82 weeks, study length 82 weeks): 11.6 mg/kg/day
- TD50 (mouse, strain Swiss albino, females, in drinking water, site: liver, lesion: angioma, dosed 82 weeks, study length 82 weeks): 42.9 mg/kg/day
- TD50 (mouse, strain Swiss albino, females, in drinking water, site: liver, lesion: angiosarcoma, dosed 82 weeks, study length 82 weeks): 27.6 mg/kg/day
- TD50 (mouse, strain Swiss albino, females, in drinking water, site: liver, lesion: several types, types named in the paper, dosed 82 weeks, study length 82 weeks): 13 mg/kg/day
- TD50 (mouse, strain Swiss albino, females, in drinking water, site: lung, lesion: adenocarcinoma, dosed 82 weeks, study length 82 weeks): 14 mg/kg/day
- TD50 (mouse, strain Swiss albino, females, in drinking water, site: lung, lesion: adenoma, dosed 82 weeks, study length 82 weeks): 5.62 mg/kg/day
- TD50 (mouse, strain Swiss albino, females, in drinking water, site: lung, lesion: several types, types named in the paper, dosed 82 weeks, study length 82 weeks): 5.22 mg/kg/day
- TD50 (mouse, strain Swiss albino, males, in drinking water, site: blood vessels, lesion: angiosarcoma, dosed 72 weeks, study length 72 weeks): 46.9 mg/kg/day
- TD50 (mouse, strain Swiss albino, males, in drinking water, site: blood vessels, lesion: several types, types named in the paper, dosed 72 weeks, study length 72 weeks): 38.6 mg/kg/day
- TD50 (mouse, strain Swiss albino, males, in drinking water, site: liver, lesion: angiosarcoma, dosed 72 weeks, study length 72 weeks): 46.9 mg/kg/day
- TD50 (mouse, strain Swiss albino, males, in drinking water, site: liver, lesion: several types, types named in the paper, dosed 72 weeks, study length 72 weeks): 48.1 mg/kg/day
- TD50 (mouse, strain Swiss albino, males, in drinking water, site: lung, lesion: adenoma, dosed 72 weeks, study length 72 weeks): 7.82 mg/kg/day
- TD50 (mouse, strain Swiss albino, males, in drinking water, site: lung, lesion: several types, types named in the paper, dosed 72 weeks, study length 72 weeks): 8.81 mg/kg/day
